Patent publication US20250091989A1, “SMALL MOLECULE PROTEIN SYNTHESIS MODULATORS” (Interdict Bio, Inc., priority 2023, published 2025)

Assays:
Assay type in all cases: biochemical
Conditions in all cases: HeLa S3 lysate, sfGFP/mCherry ratio, 2 hrs at 30° C.
ALK = assay: In vitro transcription-translation (IVTT) reporter assay, ALK test sequence
Text: (§1) All reporter constructs have been cloned into the pT7CFE1-CHis plasmid (ThermoFisher #88860) using Gibson assembly procedures (NEB #E2611L). The parental pT7CFE1-CHis plasmid contains an EMCV IRES at the 5′UTR for translation initiation, a multiple-cloning site (MCS) for gene insertion, an optional C-terminal His-epitope tag, and polyA sequence in the 3′UTR to regulate mRNA stability. All reporters are designed to be inserted at the MCS to include a red fluorescent protein (mCherry), P2A self-cleaving peptide which releases the preceding mCherry protein product, and a fusion open reading frame containing a 3×FLAG epitope, a peptide sequence of interest (TEST), and green fluorescent protein (sfGFP).
(§2) Construct Plasmid Preparation: All plasmids are isolated from MACH1 cells (ThermoFisher) grown overnight in ampicillin-containing luria broth, and purified using ZymoPure Express Plasmid Midiprep Kit (Zymo Research). Constructs are sequenced verified and diluted to a working concentration of 110 ng/μL.
(§3) HeLa S3 Lysate Preparation: HeLa S3 cell pellets are acquired from Ipracell/Ipratech (Belgium) and shipped as 4 mL frozen cell pellets on dry ice for storage at −80° C. until use. The procedure for lysate preparation is as follows. Prepare 1× Lysis Buffer, cold and stored on ice:
(§4) Each preparation takes 8 cell pellets (4 ml packed volume each, approximately 1.0×10^9 cells per pellet). Thaw cell pellets from −80° C. on ice for 90 mins. Lay pellets horizontally on top of the ice and rotate every 30 mins to ensure even thawing. Once thawed, add 4 mL of cold lysis buffer to each pellet, and using a serological pipet, gently pipet up and down to break up clumps. Incubate resuspended cells in ice for an additional 30 mins (plunged into ice). During 30 min incubation, rinse and RNase-zap (Ambion) glass dounces (use loose pestle “A”), gently dry and place on ice until needed. Prepare RNase-free Eppendorf tubes for spinning and for batch storage. Add batch labels to 1.5-1.7 mL RNase-free microcentrifuge tubes (labeling scheme below). Each batch will have an extra 1.5-1.7 mL RNase-free microcentrifuge tube for 40 μL of lysate, label the top of this tube (labeling scheme below). After 30 min incubation, transfer all 8 mL of cell pellet to dounce. Cell lysis is complete after douncing 100 times. Aliquot cell lysis into 1.5-1.7 mL temporary-microcentrifuge tubes. Place tubes in centrifuge with “fins” out, and spin at 1,200 xg for 5 mins. After the first spin use a 1 mL pipet to resuspend each tube and repeat spin. This acts as an additional lysis step, is more vigorous and increases lysate yield. During second spin get liquid N2 and a fresh conical tube on ice.
(§5) After spin is complete, transfer supernatant (lysate) from microcentrifuge tubes into the 50 mL conical tube and keep on ice. Repeat steps 10-14 for all other cell pellets until completed. Once all cell lysate has been transferred to the 50 mL conical tube pipet to mix so the solution is homogenous. Transfer 1 mL of lysate into batch-labeled microcentrifuge tubes and flash freeze in liquid nitrogen. Be sure to pipet up and down to mix throughout transfer step. Place all tubes in the […] for long-term storage.
(§6) In vitro transcription-translation assay setup: Each assay includes a master mix containing lysate and shared components, a 96-well plate containing compound titrations for testing, a 96-well DNA plate with reporter constructs to be tested, 96-well skirted PCR plates, and 96-well flat-bottom, black, fluorescent assay plates. […]

MYC = assay: In vitro transcription-translation (IVTT) reporter assay, MYC test sequence
Text: as §1, §2, §3, §4, §5, §6

KRAS G12D = assay: In vitro transcription-translation (IVTT) reporter assay, KRAS G12D test sequence
Text: as §1, §2, §3, §4, §5, §6

SMILES | IC50 (ALK) | IC50 (MYC) | IC50 (KRAS G12D)
COc1ccc(C[C@H]2NC[C@H](O)[C@H]2OC(=O)C2CN(C(=O)C3CCOCC3)C2)cc1 [V186989, (2R,3S,4S)-4-hydroxy-2-[(4-methoxyphenyl)methyl]pyrrolidin-3-yl 1-(oxane-4-carbonyl)azetidine-3-carboxylate; trifluoroacetic acid] | > 30 µM | > 30 µM | > 30 µM
COc1ccc(C[C@H]2NC[C@H](O)[C@H]2OC(=O)CCN2CC(=O)NCC2=O)cc1 [V186849, (2R,3S,4S)-4-hydroxy-2-[(4-methoxyphenyl)methyl]pyrrolidin-3-yl 3-(2,5-dioxopiperazin-1-yl)propanoate] | < 10 µM | 10 to 20 µM | > 30 µM
COc1ccc(C[C@H]2NC[C@H](O)[C@H]2OC(=O)C2CC(F)C2)cc1 (stereo partly drawn) [V187166, (2R,3S,4S)-4-hydroxy-2-[(4-methoxyphenyl)methyl]pyrrolidin-3-yl 3-fluorocyclobutane-1-carboxylate; trifluoroacetic acid] | < 10 µM | < 10 µM | < 10 µM
COc1ccc(C[C@H]2NC[C@H](O)[C@H]2OC(=O)CCCN2CCNCC2)cc1 [V187694, (2R,3S,4S)-4-hydroxy-2-[(4-methoxyphenyl)methyl]pyrrolidin-3-yl 4-(piperazin-1-yl)butanoate] | < 10 µM | < 10 µM | 10 to 20 µM
COc1ccc(C[C@H]2NC[C@H](O)[C@H]2OC(=O)C23CC(F)(C2)C3)cc1 [V187044, (2R,3S,4S)-4-hydroxy-2-[(4-methoxyphenyl)methyl]pyrrolidin-3-yl 3-fluorobicyclo[1.1.1]pentane-1-carboxylate; trifluoroacetic acid] | < 10 µM | 10 to 20 µM | > 30 µM
COc1ccc(C[C@H]2NC[C@H](O)[C@H]2OC(=O)Cc2noc(C)n2)cc1 [V187175, (2R,3S,4S)-4-hydroxy-2-[(4-methoxyphenyl)methyl]pyrrolidin-3-yl 2-(5-methyl-1,2,4-oxadiazol-3-yl)acetate; trifluoroacetic acid] | < 10 µM | < 10 µM | < 10 µM
COc1ccc(C[C@H]2NC[C@H](O)[C@H]2OC(=O)CCN2CCNCC2)cc1 [V186857, (2R,3S,4S)-4-hydroxy-2-[(4-methoxyphenyl)methyl]pyrrolidin-3-yl 3-(piperazin-1-yl)propanoate] | < 10 µM | > 30 µM | > 30 µM
COc1ccc(C[C@H]2NC[C@H](O)[C@H]2OC(=O)CCCCC(C)C)cc1 [V186779] | < 10 µM | < 10 µM | < 10 µM
COCCOCCOCC(=O)O[C@@H]1[C@@H](O)CN[C@@H]1Cc1ccc(OC)cc1 [V187184, (2R,3S,4S)-4-hydroxy-2-[(4-methoxyphenyl)methyl]pyrrolidin-3-yl 2-[2-(2-methoxyethoxy)ethoxy]acetate] | < 10 µM | < 10 µM | < 10 µM
COc1ccc(C[C@H]2NC[C@H](O)[C@H]2OC(=O)c2ccc(C(=O)C(F)(F)F)cc2)cc1 [V0092, (2R,3S,4S)-4-hydroxy-2-[(4-methoxyphenyl)methyl]pyrrolidin-3-yl 4-(2,2,2-trifluoroacetyl)benzoate] | > 30 µM | > 30 µM | > 30 µM
COc1ccc(C[C@H]2NC[C@H](O)[C@H]2OC(=O)CCC2CNC2)cc1 [V186873, (2R,3S,4S)-4-hydroxy-2-[(4-methoxyphenyl)methyl]pyrrolidin-3-yl 3-(azetidin-3-yl)propanoate] | < 10 µM | < 10 µM | < 10 µM
COc1ccc(C[C@H]2NC[C@H](O)[C@H]2OC(=O)COCc2ccc3nsnc3c2)cc1 [V187072, (2R,3S,4S)-4-hydroxy-2-[(4-methoxyphenyl)methyl]pyrrolidin-3-yl 2-(2,1,3-benzothiadiazol-5-ylmethoxy)acetate; trifluoroacetic acid] | < 10 µM | < 10 µM | < 10 µM
COc1ccc(C[C@H]2NC[C@H](O)[C@H]2OC(=O)CC[C@@H]2NC(=O)CNC2=O)cc1 [V000144, (2R,3S,4S)-4-hydroxy-2-[(4-methoxyphenyl)methyl]pyrrolidine-3-yl 3-[(2S)-3,6-dioxopiperazin-2-yl]propanoate] | < 10 µM | < 10 µM | > 30 µM
COc1ccc(C[C@H]2NC[C@H](O)[C@H]2OC(=O)C2COC2)cc1 [V0106, (2R,3S,4S)-4-hydroxy-2-[(4-methoxyphenyl)methyl]pyrrolidin-3-yl oxetane-3-carboxylate] | < 10 µM | 10 to 20 µM | 20 to 30 µM
COc1ccc(C[C@H]2NC[C@H](O)[C@H]2OC(=O)CC(C)(C)O)cc1 [V186784, (2R,3S,4S)-4-hydroxy-2-[(4-methoxyphenyl)methyl]pyrrolidin-3-yl 3-hydroxy-3-methylbutanoate] | < 10 µM | < 10 µM | 10 to 20 µM
COc1ccc(C[C@H]2NC[C@H](O)[C@H]2OC(=O)[C@@H]2CCCO2)cc1 [V186825, (2R,3S,4S)-4-hydroxy-2-[(4-methoxyphenyl)methyl]pyrrolidin-3-yl (2S)-oxolane-2-carboxylate] | < 10 µM | < 10 µM | < 10 µM
COc1ccc(C[C@H]2NC[C@H](O)[C@H]2OC(=O)C2CNC2)cc1 [V0107, (2R,3S,4S)-4-hydroxy-2-[(4-methoxyphenyl)methyl]pyrrolidin-3-yl azetidine-3-carboxylate] | 20 to 30 µM | > 30 µM | > 30 µM
COc1ccc(C[C@H]2NC[C@H](O)[C@H]2OC(=O)C2CC(F)(F)C2)cc1 [V186775, (2R,3S,4S)-4-hydroxy-2-[(4-methoxyphenyl)methyl]pyrrolidin-3-yl 3,3-difluorocyclobutane-1-carboxylate] | < 10 µM | < 10 µM | 20 to 30 µM
COc1ccc(C[C@H]2NC[C@H](O)[C@H]2OC(=O)C2CN(C(C)=O)C2)cc1 [V186866, (2R,3S,4S)-4-hydroxy-2-[(4-methoxyphenyl)methyl]pyrrolidin-3-yl 1-acetylazetidine-3-carboxylate] | < 10 µM | 10 to 20 µM | > 30 µM
COc1ccc(C[C@H]2NC[C@H](O)[C@H]2OC(=O)C2CCOC2)cc1 (stereo partly drawn) [V186761, (2R,3S,4S)-4-hydroxy-2-[(4-methoxyphenyl)methyl]pyrrolidin-3-yl oxolane-3-carboxylate] | < 10 µM | < 10 µM | > 30 µM
COc1ccc(C[C@H]2NC[C@H](O)[C@H]2OC(=O)CNc2c(N)c(=O)c2=O)cc1 [V000215, (2R,3S,4S)-4-hydroxy-2-[(4-methoxyphenyl)methyl]pyrrolidin-3-yl 2-[(2-amino-3,4-dioxocyclobut-1-en-1-yl)amino]acetate] | < 10 µM | < 10 µM | < 10 µM
C#Cc1ccc(C[C@H]2NC[C@H](O)[C@H]2OC(C)=O)cc1 [V186940] | < 10 µM | < 10 µM | < 10 µM
COc1ccc(C[C@H]2NC[C@H](O)[C@H]2OC(=O)C2CC(=O)N2)cc1 (stereo partly drawn) [V186864, (2R,3S,4S)-4-hydroxy-2-[(4-methoxyphenyl)methyl]pyrrolidin-3-yl 4-oxoazetidine-2-carboxylate; trifluoroacetic acid] | < 10 µM | 10 to 20 µM | > 30 µM
COc1ccc(C[C@H]2NC[C@H](O)[C@H]2OC(=O)C2CC3(C2)CC(N(C)C)C3)cc1 (stereo partly drawn) [V187066, (2R,3S,4S)-4-hydroxy-2-[(4-methoxyphenyl)methyl]pyrrolidin-3-yl 6-(dimethylamino)spiro[3.3]heptane-2-carboxylate] | 10 to 20 µM | > 30 µM | > 30 µM
COc1ccc(C[C@H]2NC[C@H](O)[C@H]2OC(=O)C2CCS(=N)(=O)CC2)cc1 (stereo partly drawn) [V186712, (2R,3S,4S)-4-hydroxy-2-[(4-methoxyphenyl)methyl]pyrrolidin-3-yl (1 s)-1-imino-1-oxo-1lambda6-thiane-4-carboxylate] | > 30 µM | > 30 µM | > 30 µM
